Experimental data as given in patent US12570655B2, “Cysteine covalent modifiers of AKT1 and uses thereof” (Terremoto Biosciences, Inc., priority 2023, dated 2026).
Like-named read-outs stand apart in the source and are kept apart here.

Assays:
Assay type in all cases: cell-based
[1] = molecular target: T1, AKT1 E17K (Homo sapiens, UniProt P31749, E17K); assay: Live cell AKT1 E17K target engagement by NanoBRET competitive probe displacement; conditions: HEK293 cells transfected with kinase-NanoLuciferase fusion, 2 h at 37° C.
T1 construct: expressed in transfected cells; host or cells: HEK293
T1 sequence (P31749 whole entry E17K, the tested form may be a part): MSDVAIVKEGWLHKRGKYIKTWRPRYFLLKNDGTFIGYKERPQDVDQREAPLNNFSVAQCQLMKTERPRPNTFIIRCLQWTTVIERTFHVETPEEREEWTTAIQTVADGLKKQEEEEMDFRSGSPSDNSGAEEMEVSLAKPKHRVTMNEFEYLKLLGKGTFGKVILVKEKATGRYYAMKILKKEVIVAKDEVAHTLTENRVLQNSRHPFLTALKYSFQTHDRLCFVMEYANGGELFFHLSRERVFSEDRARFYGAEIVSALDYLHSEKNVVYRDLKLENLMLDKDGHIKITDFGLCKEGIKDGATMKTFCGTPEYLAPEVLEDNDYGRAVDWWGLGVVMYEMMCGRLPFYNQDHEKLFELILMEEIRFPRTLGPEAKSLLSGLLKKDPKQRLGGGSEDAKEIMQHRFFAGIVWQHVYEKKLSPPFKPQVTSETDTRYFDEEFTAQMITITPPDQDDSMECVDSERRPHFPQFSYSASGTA
Outline: (§1)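 Luminescence ratio 600/460 nm served as readout after HEK293 cells bearing transiently expressed kinase–NanoLuciferase fusions were exposed 2 h at 37 °C to test compound alongside an ATP-competitive fluorescent tracer near EC50. Extracellular signal was quenched by a luciferase inhibitor.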

[2] = molecular target: T2, AKT2 (Homo sapiens, UniProt P31751); assay: Live cell AKT2 target engagement by NanoBRET competitive probe displacement; conditions: HEK293 cells transfected with kinase-NanoLuciferase fusion, 2 h at 37° C.
T2 construct: expressed in transfected cells; host or cells: HEK293
T2 sequence (P31751 whole entry, the tested form may be a part): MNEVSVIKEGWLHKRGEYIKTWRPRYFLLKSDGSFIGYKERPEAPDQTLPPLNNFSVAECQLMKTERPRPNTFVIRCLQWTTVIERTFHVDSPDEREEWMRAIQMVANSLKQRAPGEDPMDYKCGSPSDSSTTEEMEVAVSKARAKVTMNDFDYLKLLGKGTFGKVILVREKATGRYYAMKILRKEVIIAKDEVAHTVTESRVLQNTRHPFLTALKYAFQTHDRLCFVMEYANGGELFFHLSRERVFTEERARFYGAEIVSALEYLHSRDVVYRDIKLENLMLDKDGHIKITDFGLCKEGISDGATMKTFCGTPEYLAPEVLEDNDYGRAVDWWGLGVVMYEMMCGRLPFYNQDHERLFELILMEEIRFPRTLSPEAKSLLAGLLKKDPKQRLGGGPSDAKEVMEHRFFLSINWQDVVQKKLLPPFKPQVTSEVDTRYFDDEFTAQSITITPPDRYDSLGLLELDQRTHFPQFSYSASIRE
Outline: as §1

[3] = molecular target: T3, AKT1 WT (Homo sapiens, UniProt P31749); assay: Live cell AKT1 WT target engagement by NanoBRET competitive probe displacement; conditions: HEK293 cells transfected with kinase-NanoLuciferase fusion, 2 h at 37° C.
T3 construct: expressed in transfected cells; host or cells: HEK293
T3 sequence (P31749 whole entry, the tested form may be a part): as the sequence (P31749 whole entry E17K, the tested form may be a part) above, with K17E counted along it
Outline: as §1

[4] = test system: LAPC4 prostate cancer cells; assay: Antiproliferative effects in LAPC4 cells (CellTiter Glo); conditions: LAPC4 cells (AKT1 E17K allele), read-out: LAPC4 proliferation IC50
Outline: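 IC50 values reflect 72 h compound treatment of cells plated at 1,000 per well, with CellTiter Glo luminescence as the viability read-out.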

Structure (SMILES)	IC50 [1] [nM]	IC50 [2] [nM]	IC50 [3] [nM]	IC50 ([4]; Homo sapiens, LAPC4, 72 h) [nM]	IC50 ([4]; 72 h) [nM]
C=CC(=O)N1CCC(N[C@H]2CCc3cc(-n4c(-c5cccnc5N)nc5ccc(-n6ccc(C7CCC7)n6)nc54)ccc32)CC1 [Example 283, 1-(4-{[(1S)-5-[2-(2-aminopyridin-3-yl)-5-(3-cyclobutylpyrazol-1-yl)imidazo[4,5-b]pyridin-3-yl]-2,3-dihydro-1H-inden-1-yl]amino}piperidin-1-yl)prop-2-en-1-one]	9.03	42	133	835	
C=CC(=O)N1CCC(N[C@H]2CCc3cc(-n4c(-c5cccnc5N)nc5ccc(-n6cccn6)nc54)ccc32)C1 (single isomer, unassigned) [Example 58, 1-((*)-3-(((S)-5-(2-(2-aminopyridin-3-yl)-5-(1H-pyrazol-1-yl)-3H-imidazo[4,5-b]pyridin-3-yl)-2,3-dihydro-1H-inden-1-yl)amino)pyrrolidin-1-yl)prop-2-en-1-one]	189	1030	50.2		438
C=CC(=O)NC1CC(N[C@H]2CCc3cc(-n4c(-c5cccnc5N)nc5ccc(-n6cccn6)nc54)ccc32)C1 (single isomer, unassigned) [Example 90, N-((1*,3*)-3-(((S)-5-(2-(2-aminopyridin-3-yl)-5-(1H-pyrazol-1-yl)-3H-imidazo[4,5-b]pyridin-3-yl)-2,3-dihydro-1H-inden-1-yl)amino)cyclobutyl)acrylamide]	156	109	41.2		351
CC#CC(=O)N1CCC(N[C@H]2CCc3cc(-n4c(-c5cccnc5N)nc5ccc(-n6cccn6)nc54)ccc32)CC1 [Example 69, 1-(4-{[(1S)-5-[2-(2-aminopyridin-3-yl)-5-(pyrazol-1-yl)imidazo[4,5-b]pyridin-3-yl]-2,3-dihydro-1H-inden-1-yl]amino}piperidin-1-yl)but-2-yn-1-one]	57.7	226	25.3	358	
C=CC(=O)N1CCC(N[C@H]2CC(F)c3cc(-n4c(-c5cccnc5N)nc5ccc(-n6cccn6)nc54)ccc32)CC1 (single isomer, unassigned) [Example 234, 1-(4-(((1S,3*)-5-(2-(2-aminopyridin-3-yl)-5-(1H-pyrazol-1-yl)-3H-imidazo[4,5-b]pyridin-3-yl)-3-fluoro-2,3-dihydro-1H-inden-1-yl)amino)piperidin-1-yl)prop-2-en-1-one]	12.1	70.4	317		330
C=CC(=O)N1CCC(N[C@@H]2c3ccc(-n4c(-c5ccccc5F)nc5ccc(-n6cccn6)nc54)cc3CC2F)CC1 (single isomer, unassigned) [Example 300, 1-(4-(((1R,2*)-2-fluoro-5-(2-(2-fluorophenyl)-5-(1H-pyrazol-1-yl)-3H-imidazo[4,5-b]pyridin-3-yl)-2,3-dihydro-1H-inden-1-yl)amino)piperidin-1-yl)prop-2-en-1-one]	9.07	34.9	2330		389
Nc1ncccc1-c1nc2ccc(-n3cccn3)nc2n1-c1ccc2c(c1)CC[C@@H]2NC(=O)c1ccccc1NC(=O)C1=CCCC1 [Example 37, (S)-N-(5-(2-(2-aminopyridin-3-yl)-5-(1H-pyrazol-1-yl)-3H-imidazo[4,5-b]pyridin-3-yl)-2,3-dihydro-1H-inden-1-yl)-2-(cyclopent-1-ene-1-carboxamido)benzamide]	246	738	93	581	
C=CC(=O)N1C[C@H]2COC[C@@H](C1)C2N[C@H]1CCc2cc(-n3c(-c4cccnc4N)nc4ccc(-n5cccn5)nc43)ccc21 (single isomer, unassigned) [Example 72, 1-((1R,5S,9*)-9-(((S)-5-(2-(2-aminopyridin-3-yl)-5-(1H-pyrazol-1-yl)-3H-imidazo[4,5-b]pyridin-3-yl)-2,3-dihydro-1H-inden-1-yl)amino)-3-oxa-7-azabicyclo[3.3.1]nonan-7-yl)prop-2-en-1-one]	75.2	289	15.8		493
C=CC(=O)N1CCC2(CC1)CC(N[C@H]1CCc3cc(-n4c(-c5cccnc5N)nc5ccc(-n6cccn6)nc54)ccc31)C2 [Example 30, 1-(2-{[(1S)-5-[2-(2-aminopyridin-3-yl)-5-(pyrazol-1-yl)imidazo[4,5-b]pyridin-3-yl]-2,3-dihydro-1H-inden-1-yl]amino}-7-azaspiro[3.5]nonan-7-yl)prop-2-en-1-one]	> 1000	4830	296	2600	
C=CC(=O)N1C[C@H]2C[C@@H]1CC2N[C@H]1CCc2cc(-n3c(-c4cccnc4N)nc4ccc(-n5cccn5)nc43)ccc21 (single isomer, unassigned) [Example 137, 1-[(1R,4R,5*)-5-{[(1S)-5-[2-(2-aminopyridin-3-yl)-5-(pyrazol-1-yl)imidazo[4,5-b]pyridin-3-yl]-2,3-dihydro-1H-inden-1-yl]amino}-2-azabicyclo[2.2.1]heptan-2-yl]prop-2-en-1-one]	71.6	244	14.2		161
C=CC(=O)N1CCC(N[C@@H]2c3ccc(-n4c(-c5cccnc5N)nc5ccc(-n6ccc(F)n6)nc54)cc3CC2F)C[C@H]1C (single isomer, unassigned) [Example 276, 1-((2R,4*)-4-(((1R,2*)-5-(2-(2-aminopyridin-3-yl)-5-(3-fluoro-1H-pyrazol-1-yl)-3H-imidazo[4,5-b]pyridin-3-yl)-2-fluoro-2,3-dihydro-1H-inden-1-yl)amino)-2-methylpiperidin-1-yl)prop-2-en-1-one]	30.7	106	1350		378

Second part, the molecule after the results:

IC50 [1] [nM]	IC50 [2] [nM]	IC50 [3] [nM]	IC50 ([4]; Homo sapiens, LAPC4, 72 h) [nM]	IC50 ([4]; 72 h) [nM]	Structure (SMILES)
> 1000	> 10000	> 1000		3460	C=CC(=O)N1CCC(N[C@H]2CCc3cc(-n4c(-c5cccnc5N)nc5ccc(-n6cccn6)nc54)ccc32)C(O)C1 (single isomer, unassigned) [Example 142, 1-[(3*,4*)-4-{[(1S)-5-[2-(2-aminopyridin-3-yl)-5-(pyrazol-1-yl)imidazo[4,5-b]pyridin-3-yl]-2,3-dihydro-1H-inden-1-yl]amino}-3-hydroxypiperidin-1-yl]prop-2-en-1-one]
20.6	92.7	4.52		120	C=CC(=O)N1CCC(N[C@H]2CCc3cc(-n4c(-c5cccnc5N)nc5ccc(-n6cccn6)nc54)ccc32)C(F)C1 (single isomer, unassigned) [Example 104, 1-((3*,4*)-4-(((S)-5-(2-(2-aminopyridin-3-yl)-5-(1H-pyrazol-1-yl)-3H-imidazo[4,5-b]pyridin-3-yl)-2,3-dihydro-1H-inden-1-yl)amino)-3-fluoropiperidin-1-yl)prop-2-en-1-one]
326	2250	97.5		1510	C=CC(=O)N1CC2CC[C@@H]1CC2N[C@H]1CCc2cc(-n3c(-c4cccnc4N)nc4ccc(-n5cccn5)nc43)ccc21 (single isomer, unassigned) [Example 132, 1-[(1R,4R,5*)-5-{[(1S)-5-[2-(2-aminopyridin-3-yl)-5-(pyrazol-1-yl)imidazo[4,5-b]pyridin-3-yl]-2,3-dihydro-1H-inden-1-yl]amino}-2-azabicyclo[2.2.2]octan-2-yl]prop-2-en-1-one]
127	143	21.6		343	C#CC1CC(N[C@H]2CCc3cc(-n4c(-c5cccnc5N)nc5ccc(-n6cccn6)nc54)ccc32)CCN1C(=O)C=C (single isomer, unassigned) [Example 111, 1-((2*,4*)-4-(((S)-5-(2-(2-aminopyridin-3-yl)-5-(1H-pyrazol-1-yl)-3H-imidazo[4,5-b]pyridin-3-yl)-2,3-dihydro-1H-inden-1-yl)amino)-2-ethynylpiperidin-1-yl)prop-2-en-1-one]
727	5560	115	1460		N#CN1CCC(N[C@H]2CCc3cc(-n4c(-c5cccnc5N)nc5ccc(-n6cccn6)nc54)ccc32)CC1 [Example 51, 4-{[(1S)-5-[2-(2-aminopyridin-3-yl)-5-(pyrazol-1-yl)imidazo[4,5-b]pyridin-3-yl]-2,3-dihydro-1H-inden-1-yl]amino}piperidine-1-carbonitrile]
> 1000	> 10000	> 1000		> 10000	C=CC(=O)N1CCC(NC2c3ccc(-n4c(-c5cccnc5N)nc5ccc(-n6cccn6)nc54)cc3CC2O)CC1 (single isomer, unassigned) [Example 151, 1-(4-(((1*,2*)-5-(2-(2-aminopyridin-3-yl)-5-(1H-pyrazol-1-yl)-3H-imidazo[4,5-b]pyridin-3-yl)-2-hydroxy-2,3-dihydro-1H-inden-1-yl)amino)piperidin-1-yl)prop-2-en-1-one]
14.8	55.9	297	358		C=CC(=O)NCCc1ccccc1C(=O)N[C@H]1CCc2cc(-n3c(-c4cccnc4N)nc4ccc(-n5cccn5)nc43)ccc21 [Example 268, (S)-2-(2-acrylamidoethyl)-N-(5-(2-(2-aminopyridin-3-yl)-5-(1H-pyrazol-1-yl)-3H-imidazo[4,5-b]pyridin-3-yl)-2,3-dihydro-1H-inden-1-yl)benzamide]
